In patent US11691962B2 (eXIthera Pharmaceuticals, Inc., priority 2018, dated 2023):

Target: Factor XIa (Homo sapiens (Human), UniProt P03951)
Assay: Factor XIa enzyme inhibition assay (dose response, fluorogenic AMC substrate)
Format: biochemical
Conditions: read-out: hFXIa IC50
In short: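 Fluorogenic progress curves (30 min, 1-min reads, 30° C) were recorded for 0.25 nM FXIa cleaving 50 μM Glp-Pro-Arg-AMC in Hepes pH 7.4 buffer with NaCl and Tween 20. Compounds were serially two-fold diluted, and IC50 was fitted with a Hill equation.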

Factor XIa, sequence (P03951 388-625): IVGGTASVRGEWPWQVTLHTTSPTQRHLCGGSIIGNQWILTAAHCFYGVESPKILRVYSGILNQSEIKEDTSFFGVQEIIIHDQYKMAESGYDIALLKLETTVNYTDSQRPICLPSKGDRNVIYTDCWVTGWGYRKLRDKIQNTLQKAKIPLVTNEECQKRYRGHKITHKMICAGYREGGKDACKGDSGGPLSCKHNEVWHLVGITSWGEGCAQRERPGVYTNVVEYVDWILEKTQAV
Factor XIa, sequence (P03951 19-387 partner): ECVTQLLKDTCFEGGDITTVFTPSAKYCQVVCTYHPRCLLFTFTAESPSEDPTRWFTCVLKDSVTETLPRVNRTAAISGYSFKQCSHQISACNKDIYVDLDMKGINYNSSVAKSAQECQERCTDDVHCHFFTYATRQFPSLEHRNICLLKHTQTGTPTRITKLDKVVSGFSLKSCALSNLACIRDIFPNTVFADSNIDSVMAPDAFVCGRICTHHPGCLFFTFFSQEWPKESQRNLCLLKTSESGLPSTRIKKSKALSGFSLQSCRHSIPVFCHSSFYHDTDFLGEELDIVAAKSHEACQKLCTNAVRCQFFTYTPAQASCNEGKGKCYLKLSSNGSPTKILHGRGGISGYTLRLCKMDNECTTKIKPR

Compound | IC50
CN(C(=O)[C@@H]1[C@@H](Cc2ccnc(N)c2)C(=O)N1C(=O)NC(c1cccc(Cl)c1)C(F)(F)F)c1ccn(C)n1 (stereo in doubt) [Compound 1-38, (2S,3R)-3-((2-aminopyridin-4-yl)methyl)-N2-(1-methyl-1H-pyrazol-3-yl)-N1-((R)-1-(3-chlorophenyl)-2,2,2-trifluoroethyl)-N2-methyl-4-oxoazetidine-1,2-dicarboxamide] | < 10 nM
CC[C@@H](NC(=O)N1C(=O)[C@H](Cc2ccnc(N)c2)[C@H]1C(=O)N(C)c1cnn(C)c1)c1ccc(F)c(C)c1F [Compound 1-207, (2S,3R)-3-((2-aminopyridin-4-yl)methyl)-N2-(1-methyl-1H-pyrazol-4-yl)-N1-((R)-1-(2,4-difluoro-3-methylphenyl)propyl)-N2-methyl-4-oxoazetidine-1,2-dicarboxamide] | < 10 nM
CC[C@@H](NC(=O)N1C(=O)[C@H](Cc2ccnc(N)c2)[C@H]1C(=O)N(C)c1cnn(C)c1)c1ccc(C)c(F)c1F [Compound 1-208, (2S,3R)-3-((2-aminopyridin-4-yl)methyl)-N2-(1-methyl-1H-pyrazol-4-yl)-N1-((R)-1-(2,3-difluoro-4-methylphenyl)propyl)-N2-methyl-4-oxoazetidine-1,2-dicarboxamide] | < 10 nM
CC[C@@H](NC(=O)N1C(=O)[C@H](Cc2ccnc(N)c2)[C@H]1C(=O)N(C)c1nccn1C)c1ccc(F)c(F)c1C [Compound 1-212, (2S,3R)-3-((2-aminopyridin-4-yl)methyl)-N2-(1-methyl-1H-imidazol-2-yl)-N1-((R)-1-(3,4-difluoro-2-methylphenyl)propyl)-N2-methyl-4-oxoazetidine-1,2-dicarboxamide] | < 10 nM
CC[C@@H](NC(=O)N1C(=O)[C@H](Cc2ccnc(N)c2)[C@H]1C(=O)N(C)c1ccnn1C)c1ccc(F)c(C)c1 [Compound 1-214, (2S,3R)-3-((2-aminopyridin-4-yl)methyl)-N2-(1-methyl-1H-pyrazol-5-yl)-N1-((R)-1-(4-fluoro-3-methylphenyl)propyl)-N2-methyl-4-oxoazetidine-1,2-dicarboxamide] | < 10 nM
CC[C@@H](NC(=O)N1C(=O)[C@H](Cc2ccnc(N)c2)[C@H]1C(=O)N(C)c1ccnn1C)c1ccc(F)c(F)c1 [Compound 1-215, (2S,3R)-3-((2-aminopyridin-4-yl)methyl)-N2-(1-methyl-1H-pyrazol-5-yl)-N1-((R)-1-(3,4-difluorophenyl)propyl)-N2-methyl-4-oxoazetidine-1,2-dicarboxamide] | < 10 nM
CC[C@@H](NC(=O)N1C(=O)[C@H](Cc2ccnc(N)c2)[C@H]1C(=O)N(C)c1ccnn1C)c1cc(F)ccc1F [Compound 1-217, (2S,3R)-3-((2-aminopyridin-4-yl)methyl)-N2-(1-methyl-1H-pyrazol-5-yl)-N1-((R)-1-(2,5-difluorophenyl)propyl)-N2-methyl-4-oxoazetidine-1,2-dicarboxamide] | < 10 nM
CC[C@H](NC(=O)N1C(=O)[C@H](Cc2ccnc(N)c2)[C@H]1C(=O)N(C)c1nccn1C)c1cc(F)ccc1F [Compound 1-221, (2S,3R)-3-((2-aminopyridin-4-yl)methyl)-N2-(1-methyl-1H-imidazol-2-yl)-N1-((S)-1-(2,5-difuorophenyl)propyl)-N2-methyl-4-oxoazetidine-1,2-dicarboxamide] | 100 to 1000 nM

Continued, values first:

IC50 | Compound
< 10 nM | CC[C@@H](NC(=O)N1C(=O)[C@H](Cc2ccnc(N)c2)[C@H]1C(=O)N(C)c1cnn(C)c1)c1cc(C)c(F)c(C)c1 [Compound 1-206, (2S,3R)-3-((2-aminopyridin-4-yl)methyl)-N2-(1-methyl-1H-pyrazol-4-yl)-N1-((R)-1-(3,5-dimethyl-4-fluorophenyl)propyl)-N2-methyl-4-oxoazetidine-1,2-dicarboxamide]
< 10 nM | CC[C@@H](NC(=O)N1C(=O)[C@H](Cc2ccnc(N)c2)[C@H]1C(=O)N(C)c1nccn1C)c1ccc(C)c(C)c1C [Compound 1-209, (2S,3R)-3-((2-aminopyridin-4-yl)methyl)-N2-(1-methyl-1H-imidazol-2-yl)-N1-((R)-1-(2,3,4-trimethylphenyl)propyl)-N2-methyl-4-oxoazetidine-1,2-dicarboxamide]
< 10 nM | CC[C@@H](NC(=O)N1C(=O)[C@H](Cc2ccnc(N)c2)[C@H]1C(=O)N(C)c1nccn1C)c1ccc(F)c(F)c1F [Compound 1-210, (2S,3R)-3-((2-aminopyridin-4-yl)methyl)-N2-(1-methyl-1H-imidazol-2-yl)-N1-((R)-1-(2,3,4-trifluorophenyl)propyl)-N2-methyl-4-oxoazetidine-1,2-dicarboxamide]
< 10 nM | CC[C@@H](NC(=O)N1C(=O)[C@H](Cc2ccnc(N)c2)[C@H]1C(=O)N(C)c1nccn1C)c1ccc(F)c(C)c1C [Compound 1-211, (2S,3R)-3-((2-aminopyridin-4-yl)methyl)-N2-(1-methyl-1H-imidazol-2-yl)-N1-((R)-1-(2,3-dimethyl-4-fluorophenyl)propyl)-N2-methyl-4-oxoazetidine-1,2-dicarboxamide]
< 10 nM | CC[C@@H](NC(=O)N1C(=O)[C@H](Cc2ccnc(N)c2)[C@H]1C(=O)N(C)c1ccnn1C)c1cccc(F)c1F [Compound 1-213, (2S,3R)-3-((2-aminopyridin-4-yl)methyl)-N2-(1-methyl-1H-pyrazol-5-yl)-N1-((R)-1-(2,3-difluorophenyl)propyl)-N2-methyl-4-oxoazetidine-1,2-dicarboxamide]
< 10 nM | CC[C@@H](NC(=O)N1C(=O)[C@H](Cc2ccnc(N)c2)[C@H]1C(=O)N(C)c1ccnn1C)c1ccc(C)c(F)c1 [Compound 1-216, (2S,3R)-3-((2-aminopyridin-4-yl)methyl)-N2-(1-methyl-1H-pyrazol-5-yl)-N1-((R)-1-(3-fluoro-4-methylphenyl)propyl)-N2-methyl-4-oxoazetidine-1,2-dicarboxamide]
< 10 nM | CC[C@@H](NC(=O)N1C(=O)[C@H](Cc2ccnc(N)c2)[C@H]1C(=O)N(C)c1nccn1C)c1ccc(C)c(C)c1F [Compound 1-218, (2S,3R)-3-((2-aminopyridin-4-yl)methyl)-N2-(1-methyl-1H-imidazol-2-yl)-N1-((R)-1-(2-fluoro-3,4-dimethylphenyl)propyl)-N2-methyl-4-oxoazetidine-1,2-dicarboxamide]
< 10 nM | CC[C@@H](NC(=O)N1C(=O)[C@H](Cc2ccnc(N)c2)[C@H]1C(=O)N(C)c1ccnn1C)c1cc(F)ccc1C [Compound 1-219, (2S,3R)-3-((2-aminopyridin-4-yl)methyl)-N2-(1-methyl-1H-pyrazol-5-yl)-N1-((R)-1-(5-fluoro-2-methylphenyl)propyl)-N2-methyl-4-oxoazetidine-1,2-dicarboxamide]
10 to 100 nM | CC[C@H](NC(=O)N1C(=O)[C@H](Cc2ccnc(N)c2)[C@H]1C(=O)N(C)c1nccn1C)c1cccc(F)c1 [Compound 1-220, (2S,3R)-3-((2-aminopyridin-4-yl)methyl)-N2-(1-methyl-1H-imidazol-2-yl)-N1-((S)-1-(3-fluorophenyl)propyl)-N2-methyl-4-oxoazetidine-1,2-dicarboxamide]
10 to 100 nM | (2S,3R)-3-((2-aminopyridin-4-yl)methyl)-N2-(1-methyl-1H-imidazol-2-yl)-N1-((R)-1-(3-chlorophenyl)propyl)-N1-methyl-N2-methyl-4-oxoazetidine-1,2-dicarboxamide [Compound 1-65]

System: Trypsin
Assay: Dose response assay for protease inhibitors: trypsin
Format: biochemical
Conditions: selectivity, trypsin over Factor XIa
Method: (§1) • Assay buffer: 20 mM Hepes, pH 7.4; 150 mM NaCl; 0.02% Tween 20 • Compounds: 10 mM stocks in DMSO • Substrate: 20 mM Glp-Pro-Arg-AMC, 25 mg/2.3 mL H2O (store at +4° C.) [Factor XIa, thrombin, and trypsin] • 20 mM Pro-Phe-Arg-AMC (Bachem I-1295), 25 mg/2.2 mL H2O • or Boc-Leu-Gly-Arg-AMC (Bachem I-1105), 25 mg/2.07 mL H2O • (store at +4° C.) [Factor Xa] • Enzyme: Factor XIa; 0.25 μM in 50% glycerol (20 μg/mL) • Trypsin; 0.2 μM in 50% glycerol (4.8 μg/mL) • Thrombin; 0.2 μM in 50% glycerol (7.34 μg/mL) • Factor Xa; 0.2 μM in 50% glycerol (9.2 μg/mL) • These stocks are aliquoted (˜100 μL/aliquot) and stored at −20° C. Methods: • 1. Dilute the substrate to 100 μM in assay buffer (30 μL/6 mL). The enzyme is diluted to 0.5 nM just prior to use (12 μL/6 mL for Factor XIa; 15 μL/6 mL for all of the rest.) • 2. Pipette 50 μL of substrate into each well of the 96 well (12×8) microtiter plate. (Column 1 is used as the 100% activity control and receives no compound, and Column 12 is the blank and receives no enzyme.) Add an additional 46 μL to column 2. • 3. Pipette 4 μL of each compound into the appropriate well in column 2 of the plate (unknowns assayed in triplicate, standard assayed in duplicate). The final compound concentration will be […] of the stock. • 4. Serially two-fold dilute the compound by mixing the sample in column 2, removing 50 μL to the next well (column 3), mix and remove to column 4, etc. until column 11. After mixing column 11, remove 50 μL and discard. • 5. Pipette 50 μL of buffer into column 12. Initiate the reaction by adding 50 μL of enzyme solution to each well of columns 1-11 as rapidly as possible. • 6. Read the plate in a spectrophotometer (SpectraMax) at 30° C., wherein each well is measured every 60 s for 30 min. For Factor Xa assays, each well is measured every 1 min for a total of 60 min. • 7. For Factor XIa assays, the compounds are assayed, in duplicate, at 3 different starting concentrations, 20, 2, and 0.2 μM; 1:10, 1:100, and 1:1000 dilution of 10 mM stock or at 2, 0.2, and 0.02 μM; 1:100, 1:1000, and 1:10,000 dilution of 10 mM stock. Data for each concentration are combined for graphing and data fitting. • 8. Data can be used both for estimation of IC50 and for estimation of Kon.

Compound | Ratio: Trypsin/FXIa
CN(C(=O)[C@@H]1[C@@H](Cc2ccnc(N)c2)C(=O)N1C(=O)NC(c1cccc(Cl)c1)C(F)(F)F)c1ccn(C)n1 (stereo in doubt) [Compound 1-38, (2S,3R)-3-((2-aminopyridin-4-yl)methyl)-N2-(1-methyl-1H-pyrazol-3-yl)-N1-((R)-1-(3-chlorophenyl)-2,2,2-trifluoroethyl)-N2-methyl-4-oxoazetidine-1,2-dicarboxamide] | G (“G” indicates 1-100)

Target: Thrombin (Homo sapiens (Human), UniProt P00734)
Assay: Dose response assay for protease inhibitors: thrombin
Format: biochemical
Conditions: selectivity, thrombin over Factor XIa
Method: as §1

Ratio: Thrombin/FXIa | Compound
G (“G” indicates 1-100) | CN(C(=O)[C@@H]1[C@@H](Cc2ccnc(N)c2)C(=O)N1C(=O)NC(c1cccc(Cl)c1)C(F)(F)F)c1ccn(C)n1 (stereo in doubt) [Compound 1-38, (2S,3R)-3-((2-aminopyridin-4-yl)methyl)-N2-(1-methyl-1H-pyrazol-3-yl)-N1-((R)-1-(3-chlorophenyl)-2,2,2-trifluoroethyl)-N2-methyl-4-oxoazetidine-1,2-dicarboxamide]

Target: Factor Xa (Homo sapiens (Human), UniProt P00742)
Assay: Dose response assay for protease inhibitors: Factor Xa
Format: biochemical
Conditions: selectivity, Factor Xa over Factor XIa
Method: as §1

Factor Xa, sequence (P00742 235-488): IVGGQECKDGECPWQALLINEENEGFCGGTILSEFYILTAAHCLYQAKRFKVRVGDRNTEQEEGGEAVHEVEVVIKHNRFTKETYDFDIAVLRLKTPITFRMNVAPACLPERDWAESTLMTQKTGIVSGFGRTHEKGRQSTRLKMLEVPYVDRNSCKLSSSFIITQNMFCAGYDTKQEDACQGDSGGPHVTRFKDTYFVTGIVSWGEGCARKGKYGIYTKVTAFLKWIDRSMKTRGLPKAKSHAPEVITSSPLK
Factor Xa, sequence (P00742 41-179 partner): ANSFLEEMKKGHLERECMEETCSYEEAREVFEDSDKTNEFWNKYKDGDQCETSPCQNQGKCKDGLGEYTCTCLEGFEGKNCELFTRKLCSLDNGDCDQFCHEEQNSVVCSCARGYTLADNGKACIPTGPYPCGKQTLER

Ratio: FXa/FXIa | Compound
H (“H” indicates 101-1000) | CN(C(=O)[C@@H]1[C@@H](Cc2ccnc(N)c2)C(=O)N1C(=O)NC(c1cccc(Cl)c1)C(F)(F)F)c1ccn(C)n1 (stereo in doubt) [Compound 1-38, (2S,3R)-3-((2-aminopyridin-4-yl)methyl)-N2-(1-methyl-1H-pyrazol-3-yl)-N1-((R)-1-(3-chlorophenyl)-2,2,2-trifluoroethyl)-N2-methyl-4-oxoazetidine-1,2-dicarboxamide]
